Measured values: PMC12124721, “Impact of Fluorine Pattern on Lipophilicity and Acid–Base Properties of 2‑(Thiofluoroalkyl)pyridines: Insights from Experiments and Statistical Modeling” (Journal of Medicinal Chemistry, 2025)
Where “and” joins values, the source holds several entries; their conditions need not be identical. Identical values can stand only once. Entries after “also recorded” stand apart in the source; their conditions may differ. Each block holds one compound with its values, some of them ahead of it.

Key:
[1] = logD7.4 by 19F NMR shake-flask partitioning (Linclau method); format: physicochemical; conditions: for logD: 1-octanol/phosphate buffer; for logD (single replicate): Table S1, individual 19F NMR partitioning experiments
Experimental: LogD ^7.4 (pH 7.4) measurements of the 2-(thiofluoroalkyl)-pyridines were conducted according to a method developed by Linclau and coworkers, a variation on the traditional “shake-flask” partitioning between octanol and water. Together with a fluorinated internal standard of known lipophilicity, simple ^19F NMR experiments allowed for the calculation of the logD ^7.4 value of the compound of interest through integration of NMR signals in each phase. During our experiments, no difference between logD ^7.4 and logP values was observed, probably due to the low basicity of the pyridines. Nonetheless, for the sake of consistency, logD ^7.4 was deemed the appropriate parameter for evaluating lipophilicity.
A protocol developed by the group of Linclau was followed for the determination of the log D ^7.4 values of the 2-substituted pyridines. The 4-step process was replicated three times for each compound: • Partitioning: to a 10 mL pear-shaped flask were added 2 mL of 1-octanol, 2-substituted pyridine (1–10 mg), trifluoroethanol (5 μL), and 2 mL of phosphate buffer (pH 7.4). The resulting mixture was stirred at 25 °C for 2 h by controlling the temperature by an immersion cooler, and then, it was left to stand at 25 °C overnight to enable complete phase separation. • Sample preparation: using a 1 mL disposable syringe, an aliquot of 0.6 mL was carefully taken from the aqueous or the 1-octanol phase. Next, the needle was carefully wiped with a dry tissue, and the aliquot was placed into an NMR tube, followed by addition of 0.1 mL of acetone-d 6. The NMR tubes were sealed using a rubber septum stopper and shaken to obtain a homogeneous solution for NMR measurement. When taking an aliquot of the lower water phase, to avoid the contamination of the syringe with the upper octanol phase, 0.05 mL of air was taken into the syringe before putting the needle into the solution, and while immersing it through the upper octanol layer, the air was gently pushed out. Upon reaching the water phase, all air bubbles are pushed out of the syringe, the aliquot is taken, and the needle is quickly removed from the solution. Then, a small amount of the water phase was discarded to ensure all traces of octanol are out of the needle, leaving a 0.6 mL sample in the syringe. • NMR measurement: fluorine (^19F{1H} NMR) nuclear magnetic resonance spectra were recorded on a Varian Mercury spectrometer or Bruker Avance Ultrashield (376.5 MHz for ^19F NMR). Parameters used in the determination of lipophilicities were obtained from the experiments carried out by Linclau and coworkers. First, the sealed tube was inserted to the NMR spectrometer, and following automatic locking and gradient shimming, a simple ^19F spectrum was recorded on the nonspinning sample to assess the required spectral width (SW) and frequency offset point (O1P). The O1P is centered between the two diagnostic F signals, and the spectral width (SW) is left at 200 ppm (it can be reduced if a better S/N ratio is required). Then, the 90° pulse was measured with the automated pulsecal routine obtaining a power (PW) of 16 μs. The measured 90° pulse, SW, and O1P were transferred into the inversion–recovery experiment. For practical purposes, it is recommended to use a D1 of 30 s for the octanol sample and of 60 s for the water sample as pulse delay, given the D1 value should be greater than 5*T1 for quantitative integration. The number of transients (NS) is selected for each sample to afford a suitable signal-to-noise ratio (SNR should be >250). • Data processing:data were processed using Mestre Nova NMR software. The obtained FID file was reprocessed using the following conditions: WFunction (LB = 2, exponential), zero filling (increasing points from 65,536 to 262,144) and then Fourier transform, followed by phasing with mouse and auto baseline correction. The integration ratio was obtained by manual integration.

[2] = pKa of conjugate acid by 19F NMR titration (Leito method); format: physicochemical; conditions: aqueous solutions of different pH, conjugate acid (pyridinium), water
Experimental: (§1) The measurements were conducted on the corresponding conjugate acids of the thiofluoroalkylpyridines using an ^19F NMR method developed by Leito and coworkers. For nonfluorinated analogues, pK a was determined by an analogous method using ^1H NMR. […] Likewise, internal difluorination of the thioethyl group led to a more acidic pyridinium (9, pK a 2.05) compared to terminal difluorination (6, pK a 2.43). […] Computationally, it is straightforward to determine pK a values for molecular organic systems, obtaining quantitative predictions via fitting to experimental data (Table S12).
A protocol developed by the group of Leito was followed for the determination of the […] of fluorinated 2-substituted pyridines using ^19F NMR. […] Next, the tube was caped and shaken vigorously, and the pH of the resulting solution was measured inside the tube with a pH meter with an NMR-tube probe. This procedure was repeated for all of the aqueous solutions to have a battery of NMR tubes at different pH values. If needed, additional solutions were prepared to ensure a continuum of pH values. • Sample measurement: for ^19F NMR measurements, a 3 mm NMR tube containing a solution of 8 mg of KF in 1 mL of D2O was inserted into the NMR tube of interest to serve as an external standard. Next, a standard ^19F NMR experiment was recorded to determine the chemical shifts of the external standard and the sample of interest. For the ^1H method, the same protocol was applied by changing the external standard for 5 μL of trifluoroethanol instead of KF. The battery of NMR samples at different pH values was measured. • Data processing: using MestReNova NMR software, the chemical shifts of the pyridines were determined. For ^19F NMR experiments, the KF reference was set to −125.00 ppm, and the closest ^19F signal of the pyridine was chosen for the chemical shift determination. For ^1H NMR experiments, the trifluoroethanol reference (CF3CH2OH) was set to 3.14 ppm, and the methyl signals of the nonfluorinated pyridines were chosen for the chemical shift determination. Next, the selected signal for each pyridine was plotted against the pH of the measured solution. Using Prism GraphPad software, a sigmoidal curve was adjusted, and the second derivate was performed to obtain the pK a value of the given pyridine.

[3] = stability in aqueous media during logD measurement; format: physicochemical; conditions: during logD7.4 measurement period
From the text: The computational model can also be employed to predict the lipophilicity of experimentally undetermined compounds such as pyridines 21 and 22 (Figure ).

[4] = logD7.4 by shake-flask HPLC-UV for nonfluorinated pyridines; format: physicochemical; conditions: for logD7.4: 1-octanol/phosphate buffer pH 7.4, HPLC-UV; for logD7.4 / logD: nonfluorinated pyridines, mean of three; for logD: 1-octanol/phosphate buffer, pH 7.4, 1-octanol/phosphate buffer pH 7.4, HPLC-UV; for logD (single sample A, B, C): Table S2, individual HPLC-UV partitionings at different buffer:octanol volume ratios, pH 7.4
Experimental: A protocol described by Ràfols and coworkers was followed for the determination of the log D ^7.4 values of the nonfluorinated pyridines. The 4-step process was replicated three times for each compound: • Stocksolution preparation: in a 12 mL vial, 15 mg of the pyridine was charged. Then, 6 mL of phosphate buffer at pH 7.4 was added, and the mixture was vigorously shaken for 2 h. An aliquot of this stock solution was measured by HPLC-UV. • Partitioning: three partitioning experiments were carried out for each compound. To prepare an experiment, in a vial containing a magnetic stir bar, a known amount of the stock solution was introduced, followed by another known amount of 1-octanol. Next, the biphasic mixture was stirred for 2 h and left to stand overnight to allow phase partition. For the selection of the different volume ratios, it was followed reported recommendations, although 1:1, 10:1, and 1:10 octanol:stock solutions were usually employed. • Sample preparation and measurement: to prepare the sample, 0.1 mL of the aqueous phase was taken and introduced in a 2 mL vial, following the precautions described in the previous section. The samples were then analyzed with the same HPLC-UV method as that of the stock solution. The log D ^7.4 value was obtaining by comparing the initial amount of pyridine in the aqueous phase before and after partitioning, taking into consideration the volume rates.

[5] = design: method as in earlier work; conditions: thiofluoroalkyl benzenes; logP (=logD7.4) measured indirectly by HPLC retention times; ref 36 (SI), O'Hagan group; cited from earlier work
[6] = pKa of conjugate acid by 1H NMR titration (nonfluorinated analogues); format: physicochemical; conditions: aqueous solutions of different pH, conjugate acid (pyridinium), water
Experimental: as §1
A protocol developed by the group of Leito was followed for the determination of the […] of fluorinated 2-substituted pyridines using ^19F NMR. […] Next, the tube was caped and shaken vigorously, and the pH of the resulting solution was measured inside the tube with a pH meter with an NMR-tube probe. […] Next, a standard ^19F NMR experiment was recorded to determine the chemical shifts of the external standard and the sample of interest. […] The battery of NMR samples at different pH values was measured. • Data processing: using MestReNova NMR software, the chemical shifts of the pyridines were determined. […] Next, the selected signal for each pyridine was plotted against the pH of the measured solution. […]

[7] = pH 7.4, 1-octanol/phosphate buffer pH 7.4, 25 °C, trifluoroethanol reference, 19F NMR, mean of three, read-out: logD7.4
[8] = pH 7.4, Table S1, individual 19F NMR partitioning experiments, pH 7.4, read-out: logD (single replicate)

Compound: FC(F)Sc1ccccn1 [Compound 2, 2-((Difluoromethyl)thio)pyridine]
logD [1, 7]: 1.95
pKa [2]: 1.7

Compound: FCCSc1ccccn1 [Compound 22]
pKa [2]: 3.08
stability in aqueous media [3]: decomposes in water; also recorded: decomposed in aqueous media; also recorded: water-unstable

Compound: FC(F)(F)Sc1ccccn1 [Compound 3, 2-((Trifluoromethyl)thio)pyridine]
logD [1, 7]: 2.13
pKa [2]: 0.97

Compound: CC(F)(F)Sc1ccccn1 [Compound 4, 2-((1,1-Difluoroethyl)thio)pyridine]
logD7.4 ([1]; 1-octanol/phosphate buffer pH 7.4, 25 °C, trifluoroethanol reference, 19F NMR, mean of three): 1.84
logD [1, 7]: 1.82
pKa [2]: 2.05

Compound: CC(F)(F)Sc1ccccc1 [SCF2CH3 Ph]
logD7.4 (Ph) [5]: 3.38

Compound: CCSc1ccccc1 [SCH2CH3 Ph]
logD7.4 (Ph) [5]: 3.42

Compound: CSc1ccccn1 [Compound 1, 2-(methylthio)pyridine]
pKa [6]: 3.69
logD [4]: 1.69

Compound: FC(F)(F)Sc1ccccc1 [SCF3 Ph]
logD7.4 (Ph) [5]: 3.70

Compound: FC(F)CSc1ccccn1 [Compound 6, 2-((2,2-Difluoroethyl)thio)pyridine]
logD [1, 7]: 2.26
pKa [2]: 2.43

Compound: O=S(=O)(CF)c1ccccn1 [Compound 11, 2-((Fluoromethyl)sulfonyl)pyridine]
logD [1, 7]: 0.1
logD [1, 8]: 0.093
logD (single replicate) ([1]; pH 7.4): 0,112 and 0,084

Compound: CSc1ccccc1 [SCH3 Ph]
logD7.4 (Ph) [5]: 2.87

Compound: O=S(=O)(CCF)c1ccccn1 [Compound 14, 2-((2-Fluoroethyl)sulfonyl)pyridine]
logD [1, 7]: -0.21
logD (single replicate) ([1]; pH 7.4): -0,199 and -0,158 and -0,274

Compound: FC(F)(F)CSc1ccccc1 [SCH2CF3 Ph]
logD7.4 (Ph) [5]: 3.30

More lines, main results first:

logD [1, 7]: 2.71
pKa [2]: 1.49
Compound: FC(F)(F)CSc1ccccn1 [Compound 8, 2-((2,2,2-Trifluoroethyl)thio)pyridine]

pKa [2]: 2.43
Compound: FCSc1ccccn1 [Compound 21, 2-((Fluoromethyl)thio)pyridine]
stability in aqueous media [3]: decomposes in water; also recorded: decomposed in aqueous media; also recorded: water-unstable

logD [1, 7]: 0.81
logD [1, 8]: 0.813
logD (single replicate) ([1]; pH 7.4): 0,802 and 0,803
Compound: O=S(=O)(CC(F)(F)F)c1ccccn1 [Compound 18, 2-((2,2,2-Trifluoroethyl)sulfonyl)pyridine]

logD [1, 7]: 0.79
logD [1, 8]: 0.786
logD (single replicate) ([1]; pH 7.4): 0,784 and 0,794
Compound: CC(F)(F)S(=O)(=O)c1ccccn1 [Compound 17, 2-((1,1-Difluoroethyl)sulfonyl)pyridine]

logD [1, 7]: 1.43
Compound: O=S(=O)(c1ccccn1)C(F)(F)F [Compound 13, 2-((Trifluoromethyl)sulfonyl)pyridine]

logD [1, 7]: 2.21
Compound: O=S(=O)(c1ccccn1)C(F)(F)C(F)(F)F [Compound 20, 2-((Perfluoroethyl)sulfonyl)pyridine]

logD7.4 [4]: -0,07
logD [4]: -0.07
logD (single sample A, B, C) [4]: -0,032 and -0,070 and -0,118
Compound: CCS(=O)(=O)c1ccccn1 [Compound 15, 2-(Ethylsulfonyl)pyridine]

logD [1, 7]: 0.31
logD [1, 8]: 0.304
logD (single replicate) ([1]; pH 7.4): 0,315 and 0,309
Compound: O=S(=O)(CC(F)F)c1ccccn1 [Compound 16, 2-((2,2-Difluoroethyl)sulfonyl)pyridine]

logD [1, 7]: 0.55
logD [1, 8]: 0.576
logD (single replicate) ([1]; pH 7.4): 0,541 and 0,538
Compound: O=S(=O)(c1ccccn1)C(F)F [Compound 12, 2-((Difluoromethyl)sulfonyl)pyridine]

logD [1, 7]: 2.76
pKa [2]: 0.94
Compound: FC(F)(F)C(F)(F)Sc1ccccn1 [Compound 9, 2-((Perfluoroethyl)thio)pyridine]

logD [4]: -0.43
logD (single sample A, B, C) [4]: -0,407 and -0,414 and -0,469
Compound: CS(=O)(=O)c1ccccn1 [Compound 10, 2-(Methylsulfonyl)pyridine]

pKa [6]: 3.68
logD7.4 [4]: 2,26
logD [4]: 2.26
Compound: CCSc1ccccn1 [Compound 5, 2-(Ethylthio)pyridine]

logD [1, 7]: 2.27
pKa [2]: 1.33
Compound: FC(F)C(F)(F)Sc1ccccn1 [Compound 7, 2-((1,1,2,2-Tetrafluoroethyl)thio)pyridine]

logD [1, 7]: 1.43
Compound: O=S(=O)(c1ccccn1)C(F)(F)C(F)F [Compound 19, 2-((1,1,2,2-Tetrafluoroethyl)sulfonyl)pyridine]
